Columns and labels:
[1] = test system: SW620 human colon carcinoma cell line; assay: Antiproliferative MTT assay, 24 h exposure plus 48 h drug-free; type: cell-based; conditions: SW-620, SW620, 24 h exposure + 48 h drug-free medium, n=3, read-out: IC50 (5-FU concentration inhibiting 50% of cell growth)
Method: (§1) All experiments were carried out in the 5-FU-resistant, human colon carcinoma cell line SW620 (a.k.a CCL227) which overexpresses TS. Cells were maintained in RPMI supplemented with 10% fetal calf serum, […] and 1% kanamycin in a humidified CO2 incubator at 37° C. All experiments were performed in exponentially growing cells.
Cells were seeded at a density of 8×10^4 cells/well in 96-well plates. […] Next, drug was removed and the cells were allowed to grow in fresh medium for an additional 48 h. After 72 h of discontinuous exposure, cell viability was evaluated using the classic colorimetric MTT assay (Alley et al, 1988). The IC50 was defined as the 5-FU concentration inhibiting 50% of cell growth.

SW620 cells = assay: 5-FU tumoral metabolism study with tritiated 5-FU; type: cell-based, human; conditions: SW620, 1 μM tritiated 5-FU, 3-6 h observation period
Method: as §1
Exponentially growing cells were exposed to 1 μM of tritiated 5-FU alone, combined with free d-Ino or as a liposomal preparation [5-FU+d-Ino]-L. After 3, 4 and 6 h exposure, cells were harvested, lysed into 70% methanol and cytosols were isolated by centrifugation (15000 rpm, 30 min) and stored at −80° C. until analysis. Separation of 5-FU and its main metabolites was achieved using a HP1090 HPLC system (Agilent, France) coupled to a Flo-One radioactive detector (Packard, France) and equipped with an RP18 column (Agilent, France), followed by elution with a K2HPO4-TBAN:Methanol gradient as described previously (Ciccolini et al, 2000b).

[2] = test system: 5-FU-resistant SW620 human colorectal cell line; assay: MTT testing of triple liposomal formulation, 72 continuous exposure; type: cell-based; conditions: SW-620
Description: Cell sensitivity was estimated by calculating the respective IC50 of the different regimen (MTT testing, 72 continuous exposure).

colorectal cancer = conditions: monotherapy; cited from earlier work
SW620 tumor = assay: In vivo efficacy, SW620 mouse xenograft model
Method: Four-week old, female Swiss, nude mice (n=5 per group, Charles River, Lyon, France) were subcutaneously inoculated with 1×10^6 SW620 cells on the right flank. […] Drugs were administered intraperitoneously on a 3×/week basis for three consecutive weeks (e.g., D1/D2/D3, D8/D9/D10 and D16/D17/D18). Tumor size was measured three times a week in three dimensions using Vernier calipers, and tumor weight (mg) was calculated using the following standard formula: mass=pi/6XlengthXwidthXheight (Waterhouse et al, 2005). Preliminary experiments performed with empty liposomes were conducted to confirm the absence of any in vivo antiproliferative activity. Animal weight was monitored as a marker of toxicity. Animals were euthanized whenever a 25% loss of initial weight was observed, or when tumors reached 2500 mg.

O=c1[nH]cc(F)c(=O)[nH]1 [5-FU, 5-fluorouracil]
IC50 [1]: 77 ± 6 µM | anti-TS FdUMP synthesis (SW620 cells): 83 dpm/mg protein | IC50 [2]: 62 µM | response rate (colorectal cancer): 20% | tumor size reduction at the conclusion of the study (SW620 tumor; 5-FU 50 mg/kg, d-Ino 120 mg/kg IP, 3x/week for three weeks): 28% | effect on tumor growth, in words (SW620 tumor; as compared with untreated animals): failed to reduce tumor growth | survival time (SW620 tumor; controls 16 days): 20 days | increase in survival time compared to controls (SW620 tumor; mouse, in vivo): 25%

— patent US20100166848A1, “LIPOSOMAL FORMULATIONS FOR TREATING CANCER” (priority 2007, published 2010)
